Source: ChEMBL document CHEMBL4393657, “Tetrazole hybrids and their antifungal activities” (2019)
≈ marks a conversion by molar mass, not a printed value.

Columns and labels:
Assay type in all cases: functional
[1] = system: Candida parapsilosis; assay: Antifungal activity against Candida parapsilosis ATCC 22019 assessed as reduction in fungal cell growth incubated for 48 hrs by broth microdilution method; details: Lodderomyces parapsilosis, ATCC 22019, 48 h
[2] = system: Aspergillus niger; assay: Antifungal activity against Aspergillus niger assessed as reduction in fungal cell growth incubated for 72 hrs by broth microdilution method
[3] = system: Pichia kudriavzevii; assay: Antifungal activity against Candida krusei assessed as reduction in fungal cell growth incubated for 48 hrs by broth microdilution method
[4] = system: Candida albicans; assay: Antifungal activity against Candida albicans assessed as reduction in fungal cell growth incubated for 48 hrs by broth microdilution method
[5] = system: Nakaseomyces glabratus; assay: Antifungal activity against Candida glabrata assessed as reduction in fungal cell growth incubated for 48 hrs by broth microdilution method
[6] = system: Candida tropicalis; assay: Antifungal activity against Candida tropicalis assessed as reduction in fungal cell growth incubated for 48 hrs by broth microdilution method
[7] = system: Cryptococcus neoformans; assay: Antifungal activity against Cryptococcus neoformans LA314 assessed as reduction in fungal cell growth incubated for 48 hrs by broth microdilution method; details: LA314, 48 h

Row | Structure (SMILES) | MIC [1] | MIC [2] | MIC [3] | MIC [4] | MIC [5] | MIC [6] | MIC [7]
1 | CC(n1nnc(CCN2CCN(c3c(Cl)cccc3Cl)CC2)n1)C(O)(Cn1cncn1)c1ccc(F)cc1F (stereo unspecified) | 1 to 16 µg/mL (≈ 1.73 to 27.7 µM) | 1 to 16 µg/mL (≈ 1.73 to 27.7 µM) | 1 to 16 µg/mL (≈ 1.73 to 27.7 µM) | 1 to 16 µg/mL (≈ 1.73 to 27.7 µM) | 1 to 16 µg/mL (≈ 1.73 to 27.7 µM) | 1 to 16 µg/mL (≈ 1.73 to 27.7 µM) | 1 to 16 µg/mL (≈ 1.73 to 27.7 µM)
2 | OC(Cn1cncn1)(Cn1nnc(CCN2CCN(c3cccc(C(F)(F)F)c3)CC2)n1)c1ccc(F)cc1F (stereo unspecified) | 1 to 16 µg/mL (≈ 1.77 to 28.4 µM) | 1 to 16 µg/mL (≈ 1.77 to 28.4 µM) | 1 to 16 µg/mL (≈ 1.77 to 28.4 µM) | 1 to 16 µg/mL (≈ 1.77 to 28.4 µM) | 1 to 16 µg/mL (≈ 1.77 to 28.4 µM) | 1 to 16 µg/mL (≈ 1.77 to 28.4 µM) | 1 to 16 µg/mL (≈ 1.77 to 28.4 µM)
3 | C[C@H](n1nnc(CCN2CCN(c3ccc(F)cc3)CC2)n1)[C@](O)(Cn1cncn1)c1ccc(F)cc1F | 0.25 to 16 µg/mL (≈ 0.474 to 30.3 µM) | 0.25 to 16 µg/mL (≈ 0.474 to 30.3 µM) | 0.25 to 16 µg/mL (≈ 0.474 to 30.3 µM) | 0.25 to 16 µg/mL (≈ 0.474 to 30.3 µM) | 0.25 to 16 µg/mL (≈ 0.474 to 30.3 µM) | 0.25 to 16 µg/mL (≈ 0.474 to 30.3 µM) | 0.25 to 16 µg/mL (≈ 0.474 to 30.3 µM)
4 | OC(Cn1cncn1)(Cn1nnnc1CCN1CCN(c2ccc(Cl)cc2)CC1)c1ccc(F)cc1F (stereo unspecified) | 0.5 to 16 µg/mL (≈ 0.943 to 30.2 µM) | 0.5 to 16 µg/mL (≈ 0.943 to 30.2 µM) | 0.5 to 16 µg/mL (≈ 0.943 to 30.2 µM) | 0.5 to 16 µg/mL (≈ 0.943 to 30.2 µM) | 0.5 to 16 µg/mL (≈ 0.943 to 30.2 µM) | 0.5 to 16 µg/mL (≈ 0.943 to 30.2 µM) | 0.5 to 16 µg/mL (≈ 0.943 to 30.2 µM)
5 | C[C@H](n1nnnc1CCN1CCN(c2cccc(Cl)c2)CC1)[C@](O)(Cn1cncn1)c1ccc(F)cc1F | 0.12 to 16 µg/mL (≈ 0.221 to 29.4 µM) | 0.12 to 16 µg/mL (≈ 0.221 to 29.4 µM) | 0.12 to 16 µg/mL (≈ 0.221 to 29.4 µM) | 0.12 to 16 µg/mL (≈ 0.221 to 29.4 µM) | 0.12 to 16 µg/mL (≈ 0.221 to 29.4 µM) | 0.12 to 16 µg/mL (≈ 0.221 to 29.4 µM) | 0.12 to 16 µg/mL (≈ 0.221 to 29.4 µM)
6 | C[C@H](n1nnnc1CCN1CCN(Cc2ccccc2)CC1)[C@](O)(Cn1cncn1)c1ccc(F)cc1F | 0.12 to 16 µg/mL (≈ 0.229 to 30.6 µM) | 0.12 to 16 µg/mL (≈ 0.229 to 30.6 µM) | 0.12 to 16 µg/mL (≈ 0.229 to 30.6 µM) | 0.12 to 16 µg/mL (≈ 0.229 to 30.6 µM) | 0.12 to 16 µg/mL (≈ 0.229 to 30.6 µM) | 0.12 to 16 µg/mL (≈ 0.229 to 30.6 µM) | 0.12 to 16 µg/mL (≈ 0.229 to 30.6 µM)
7 | C[C@H](n1nnnc1CCN1CCN(c2ccccn2)CC1)[C@](O)(Cn1cncn1)c1ccc(F)cc1F | 0.12 to 16 µg/mL (≈ 0.235 to 31.3 µM) | 0.12 to 16 µg/mL (≈ 0.235 to 31.3 µM) | 0.12 to 16 µg/mL (≈ 0.235 to 31.3 µM) | 0.12 to 16 µg/mL (≈ 0.235 to 31.3 µM) | 0.12 to 16 µg/mL (≈ 0.235 to 31.3 µM) | 0.12 to 16 µg/mL (≈ 0.235 to 31.3 µM) | 0.12 to 16 µg/mL (≈ 0.235 to 31.3 µM)
8 | OC(Cn1cncn1)(Cn1nnc(CCN2CCN(Cc3ccccc3)CC2)n1)c1ccc(F)cc1F (stereo unspecified) | 1 to 16 µg/mL (≈ 1.96 to 31.4 µM) | 1 to 16 µg/mL (≈ 1.96 to 31.4 µM) | 1 to 16 µg/mL (≈ 1.96 to 31.4 µM) | 1 to 16 µg/mL (≈ 1.96 to 31.4 µM) | 1 to 16 µg/mL (≈ 1.96 to 31.4 µM) | 1 to 16 µg/mL (≈ 1.96 to 31.4 µM) | 1 to 16 µg/mL (≈ 1.96 to 31.4 µM)
9 | C[C@H](n1nnnc1CCN1CCN(c2ccc(Cl)cc2)CC1)[C@](O)(Cn1cncn1)c1ccc(F)cc1F | 0.12 to 16 µg/mL (≈ 0.221 to 29.4 µM) | 0.12 to 16 µg/mL (≈ 0.221 to 29.4 µM) | 0.12 to 16 µg/mL (≈ 0.221 to 29.4 µM) | 0.12 to 16 µg/mL (≈ 0.221 to 29.4 µM) | 0.12 to 16 µg/mL (≈ 0.221 to 29.4 µM) | 0.12 to 16 µg/mL (≈ 0.221 to 29.4 µM) | 0.12 to 16 µg/mL (≈ 0.221 to 29.4 µM)
10 | COc1ccccc1N1CCN(CCc2nnnn2C(C)C(O)(Cn2cncn2)c2ccc(F)cc2F)CC1 (stereo unspecified) | 0.5 to 16 µg/mL (≈ 0.927 to 29.7 µM) | 0.5 to 16 µg/mL (≈ 0.927 to 29.7 µM) | 0.5 to 16 µg/mL (≈ 0.927 to 29.7 µM) | 0.5 to 16 µg/mL (≈ 0.927 to 29.7 µM) | 0.5 to 16 µg/mL (≈ 0.927 to 29.7 µM) | 0.5 to 16 µg/mL (≈ 0.927 to 29.7 µM) | 0.5 to 16 µg/mL (≈ 0.927 to 29.7 µM)

Continued, values first:

Row | MIC [1] | MIC [2] | MIC [3] | MIC [4] | MIC [5] | MIC [6] | MIC [7] | Structure (SMILES)
11 | 0.5 to 16 µg/mL (≈ 0.881 to 28.2 µM) | 0.5 to 16 µg/mL (≈ 0.881 to 28.2 µM) | 0.5 to 16 µg/mL (≈ 0.881 to 28.2 µM) | 0.5 to 16 µg/mL (≈ 0.881 to 28.2 µM) | 0.5 to 16 µg/mL (≈ 0.881 to 28.2 µM) | 0.5 to 16 µg/mL (≈ 0.881 to 28.2 µM) | 0.5 to 16 µg/mL (≈ 0.881 to 28.2 µM) | CCCCOc1ccccc1N1CCN(CCc2nnnn2CC(O)(Cn2cncn2)c2ccc(F)cc2F)CC1 (stereo unspecified)
12 | 0.12 to 16 µg/mL (≈ 0.206 to 27.5 µM) | 0.12 to 16 µg/mL (≈ 0.206 to 27.5 µM) | 0.12 to 16 µg/mL (≈ 0.206 to 27.5 µM) | 0.12 to 16 µg/mL (≈ 0.206 to 27.5 µM) | 0.12 to 16 µg/mL (≈ 0.206 to 27.5 µM) | 0.12 to 16 µg/mL (≈ 0.206 to 27.5 µM) | 0.12 to 16 µg/mL (≈ 0.206 to 27.5 µM) | CCCCOc1ccccc1N1CCN(CCc2nnnn2[C@@H](C)[C@](O)(Cn2cncn2)c2ccc(F)cc2F)CC1
13 | 1 to 16 µg/mL (≈ 2.02 to 32.3 µM) | 1 to 16 µg/mL (≈ 2.02 to 32.3 µM) | 1 to 16 µg/mL (≈ 2.02 to 32.3 µM) | 1 to 16 µg/mL (≈ 2.02 to 32.3 µM) | 1 to 16 µg/mL (≈ 2.02 to 32.3 µM) | 1 to 16 µg/mL (≈ 2.02 to 32.3 µM) | 1 to 16 µg/mL (≈ 2.02 to 32.3 µM) | OC(Cn1cncn1)(Cn1nnc(CCN2CCN(c3ccccc3)CC2)n1)c1ccc(F)cc1F (stereo unspecified)
14 | 0.5 to 16 µg/mL (≈ 0.951 to 30.4 µM) | 0.5 to 16 µg/mL (≈ 0.951 to 30.4 µM) | 0.5 to 16 µg/mL (≈ 0.951 to 30.4 µM) | 0.5 to 16 µg/mL (≈ 0.951 to 30.4 µM) | 0.5 to 16 µg/mL (≈ 0.951 to 30.4 µM) | 0.5 to 16 µg/mL (≈ 0.951 to 30.4 µM) | 0.5 to 16 µg/mL (≈ 0.951 to 30.4 µM) | COc1ccccc1N1CCN(CCc2nnnn2CC(O)(Cn2cncn2)c2ccc(F)cc2F)CC1 (stereo unspecified)
15 | 1 to 16 µg/mL (≈ 1.96 to 31.4 µM) | 1 to 16 µg/mL (≈ 1.96 to 31.4 µM) | 1 to 16 µg/mL (≈ 1.96 to 31.4 µM) | 1 to 16 µg/mL (≈ 1.96 to 31.4 µM) | 1 to 16 µg/mL (≈ 1.96 to 31.4 µM) | 1 to 16 µg/mL (≈ 1.96 to 31.4 µM) | 1 to 16 µg/mL (≈ 1.96 to 31.4 µM) | CC(n1nnc(CCN2CCN(c3ccccc3)CC2)n1)C(O)(Cn1cncn1)c1ccc(F)cc1F (stereo unspecified)
16 | 1 to 16 µg/mL (≈ 1.85 to 29.6 µM) | 1 to 16 µg/mL (≈ 1.85 to 29.6 µM) | 1 to 16 µg/mL (≈ 1.85 to 29.6 µM) | 1 to 16 µg/mL (≈ 1.85 to 29.6 µM) | 1 to 16 µg/mL (≈ 1.85 to 29.6 µM) | 1 to 16 µg/mL (≈ 1.85 to 29.6 µM) | 1 to 16 µg/mL (≈ 1.85 to 29.6 µM) | O=[N+]([O-])c1ccc(N2CCN(CCc3nnn(CC(O)(Cn4cncn4)c4ccc(F)cc4F)n3)CC2)cc1 (stereo unspecified)
17 | 1 to 16 µg/mL (≈ 1.84 to 29.4 µM) | 1 to 16 µg/mL (≈ 1.84 to 29.4 µM) | 1 to 16 µg/mL (≈ 1.84 to 29.4 µM) | 1 to 16 µg/mL (≈ 1.84 to 29.4 µM) | 1 to 16 µg/mL (≈ 1.84 to 29.4 µM) | 1 to 16 µg/mL (≈ 1.84 to 29.4 µM) | 1 to 16 µg/mL (≈ 1.84 to 29.4 µM) | CC(n1nnc(CCN2CCN(c3ccccc3Cl)CC2)n1)C(O)(Cn1cncn1)c1ccc(F)cc1F (stereo unspecified)
18 | 1 to 16 µg/mL (≈ 1.84 to 29.4 µM) | 1 to 16 µg/mL (≈ 1.84 to 29.4 µM) | 1 to 16 µg/mL (≈ 1.84 to 29.4 µM) | 1 to 16 µg/mL (≈ 1.84 to 29.4 µM) | 1 to 16 µg/mL (≈ 1.84 to 29.4 µM) | 1 to 16 µg/mL (≈ 1.84 to 29.4 µM) | 1 to 16 µg/mL (≈ 1.84 to 29.4 µM) | CC(n1nnc(CCN2CCN(c3cccc(Cl)c3)CC2)n1)C(O)(Cn1cncn1)c1ccc(F)cc1F (stereo unspecified)
